From PMC7835894 (Molecules, 2021)

Tests used:
WI-38 = assay: MTT antiproliferation/cytotoxicity assay; assay type: cell-based, human; settings: for IC50: Homo sapiens, WI-38 normal cells, MTT, 24 h, mean ± SEM; for SI (selectivity index): WI-38, SI = IC50 (WI-38)/IC50 (cell line)
Protocol: (§1) The antiproliferation and cytotoxicity were assessed using 3-(4,5-dimethylthiazol-2-yl)-2,5-diphenyltetrazolium bromide (MTT, Serva) colorimetric assay. To investigate the antiproliferation, all cell lines were seeded at a density of 20,000 cells per well in 96-well plates and allowed to adhere overnight. […] These concentrations were prepared by diluting the stock solutions with serum-free culture media. The negative control cells were those treated with 0.1% DMSO solvent alone. The treated cells were handled in reduced light and maintained under standard culture growth conditions for 24 h. After the incubation period, MTT powder was prepared as a stock solution (5 mg/mL) and 20 μL of the MTT working reagent (final concentration 0.5 mg/mL) was added to each well. This was followed by incubation with MTT reagent for 4 h in a humidified atmosphere (37 °C, 5% CO2) with subsequent addition of 150 μL of DMSO solubilizing solvent and incubation for 20 min. The absorbance of solubilized violet formazan crystals was measured at 540 nm with Biotek 800 TS microplate reader. IC50 was calculated as the concentration of retinoid that produced 50% cell growth inhibition. For cytotoxicity assessment, WI-38 normal human fibroblast cells were used for the calculation of SI which is the ratio of IC50 retinoid (WI-38)/IC50 retinoid (cancer cell line).

Vero = assay: MTT antiproliferation/cytotoxicity assay; assay type: cell-based, African green monkey; settings: Chlorocebus sabaeus, Vero normal cells, 24 h, mean ± SEM
Protocol: as §1

A549 = assay: MTT antiproliferation assay; assay type: cell-based, human; settings: for IC50: Homo sapiens, A549, MTT, 24 h, mean ± SEM; for SI (selectivity index): A549, SI = IC50 (WI-38)/IC50 (cancer cell line)
Protocol: as §1

Caco-2 = assay: MTT antiproliferation assay; assay type: cell-based, human; settings: for IC50: Homo sapiens, Caco-2, MTT, 24 h, single agent, mean ± SEM; for SI (selectivity index): Caco-2, SI = IC50 (WI-38)/IC50 (cancer cell line)
Protocol: as §1

DU-145 = assay: MTT antiproliferation assay; assay type: cell-based, human; settings: for IC50: Homo sapiens, DU-145, MTT, 24 h, mean ± SEM; for SI (selectivity index): DU-145, SI = IC50 (WI-38)/IC50 (cancer cell line)
Protocol: as §1

HCT-116 = assay: MTT antiproliferation assay; assay type: cell-based, human; settings: for IC50: Homo sapiens, HCT-116, MTT, 24 h, mean ± SEM; for SI (selectivity index): HCT-116, SI = IC50 (WI-38)/IC50 (cancer cell line)
Protocol: as §1

HepG2 = assay: MTT antiproliferation assay; assay type: cell-based, human; settings: for IC50: Homo sapiens, HepG2, MTT, 24 h, mean ± SEM; for SI (selectivity index): HepG2, SI = IC50 (WI-38)/IC50 (cancer cell line)
Protocol: as §1

Huh7 = assay: MTT antiproliferation assay; assay type: cell-based, human; settings: for IC50: Homo sapiens, Huh-7, Huh7, MTT, 24 h, mean ± SEM; for SI (selectivity index): Huh7, SI = IC50 (WI-38)/IC50 (cancer cell line)
Protocol: as §1

MCF-7 = assay: MTT antiproliferation assay; assay type: cell-based, human; settings: for IC50: Homo sapiens, MCF7, MCF-7, MTT, 24 h, mean ± SEM; for SI (selectivity index): MCF-7, SI = IC50 (WI-38)/IC50 (cancer cell line)
Protocol: as §1

MDA-MB 231 = assay: MTT antiproliferation assay; assay type: cell-based, human; settings: for IC50: Homo sapiens, MDA-MB 231, MTT, 24 h, mean ± SEM; for SI (selectivity index): MDA-MB 231, SI = IC50 (WI-38)/IC50 (cancer cell line)
Protocol: as §1

PC3 = assay: MTT antiproliferation assay; assay type: cell-based, human; settings: for IC50: Homo sapiens, PC-3, PC3, MTT, 24 h, mean ± SEM; for SI (selectivity index): PC3, SI = IC50 (WI-38)/IC50 (cancer cell line)
Protocol: as §1

Caco-2 cells [1] = assay: Cell cycle analysis (PI, flow cytometry); assay type: cell-based, human; settings: Caco-2, IC50 of retinoid
Protocol: The cell cycle analysis was performed using flow cytometry (Beckman Coulter, Brea, CA, USA). […] After incubation, cells were harvested, fixed with 70% alcohol overnight, and stained with PI (50 µg/mL). DNA content was measured by Beckman Coulter Epics XL flow cytometer and G0/G1, S, and G2/M cells were gated as appropriate using Flowing Software 2.5.1 (Turko Bioimaging, Turku, Finland).

Caco-2 cells [2] = assay: Intracellular and secreted glutamate assay; assay type: cell-based, human; settings: Caco-2, IC50 doses, 24 h
Protocol: The glutamate assay was performed using the Glutamate Assay Kit (Sigma-Aldrich, MAK004, St. Louis, MO, USA) according to the manufacturer’s protocol. […] Cells were lysed using 100 µL glutamate assay buffer and insoluble cell debris was then removed by centrifugation at 13,000× g for 10 min. The supernatant was transferred to a 10-KDa molecular weight cut-off (MWCO) spin filter (Sigma-Aldrich, St. Louis, MO, USA) to remove any particulates in the sample, and then was brought to a final volume of 50 µL with glutamate assay buffer and transferred to a 96-well plate. Finally, 100 µL of reaction mix was added to each well and the mixture was incubated for 30 min at 37 °C. The optical density was measured at 450 nm using BioTek 800 TS microplate reader (BioTek, Winooski, VT, USA). For the measurement of secreted glutamate, 50 μL samples of extracellular culture medium were placed in a 96-well plate and the kit’s enzymatic reaction mix was added to induce a glutamate-dependent color change. After 30 min incubation, the reaction products were read at the same wavelength. For determination of glutamate concentration (nmole/µL), a calibration curve was constructed using supplied 0.1 M glutamate standard with different dilutions (0 (blank), 2, 4, 6, 8 and 10 nmole per well). Glutamate concentration was measured according to the manufacturer’s instruction and as documented in earlier studies.

Caco-2 cells [3] = assay: Total antioxidant capacity (TAC/TAO); assay type: cell-based, human; settings: Caco-2 cell lysate, IC50 concentration, 24 h; solvent control 32.6 ± 0.21
Protocol: Total antioxidant capacity was assayed spectrophotometrically using a Biodiagnostics® kit (Catalogue number TA 25 13, Biodiagnostics, Cairo, Egypt). […] The measurement of total antioxidants is based on treating the cell lysate with a known excess of H2O2 (50 µM). A certain amount of H2O2, equivalent to TAC, is eliminated leaving a residual amount of H2O2 that is quantified colorimetrically by the enzymatic conversion of 3, 5, dichloro-2-hydroxy benzene sulphonate to a colored product.

SMILES	IC50 (WI-38) [µM]	IC50 (Vero) [µM]	IC50 (A549) [µM]	IC50 (Caco-2) [µM]	IC50 (DU-145) [µM]	IC50 (HCT-116) [µM]	IC50 (HepG2) [µM]	IC50 (Huh7) [µM]	IC50 (MCF-7) [µM]	IC50 (MDA-MB 231) [µM]	IC50 (PC3) [µM]	% G0-G1 (Caco-2 cells [1]; 12 h treatment) [%]	% G2M (Caco-2 cells [1]; 12 h treatment) [%]	% S (Caco-2 cells [1]; 12 h treatment) [%]	% SubG0-G1 (Caco-2 cells [1]; 12 h treatment) [%]	%G2M/G0-G1 (Caco-2 cells [1]; 12 h treatment) [%]	% G0-G1 (Caco-2 cells [1]; 24 h treatment) [%]	% G2M (Caco-2 cells [1]; 24 h treatment) [%]	% S (Caco-2 cells [1]; 24 h treatment) [%]	% SubG0-G1 (Caco-2 cells [1]; 24 h treatment) [%]	further results
CC1=C(/C=C/C(C)=C/C=C/C(C)=C/C(=O)O)C(C)(C)CCC1 [ATRA, All-trans retinoic acid, reference compound]	34 ± 1.1	> 100	84.7 ± 3.2	58 ± 1	> 100	> 100	36.2 ± 1.9	> 100	99 ± 0.26	> 100	> 100	26.1 ± 3.6	16.3 ± 1.9	57.5 ± 8.1	0.14 ± 0.1	62.5 ± 8.8	37.1 ± 4.5	31.8 ± 4.8	29.5 ± 3.5	1.6 ± 0.19	%G2M/G0-G1 (Caco-2 cells [1]; 24 h treatment): 85.7 ± 16.3 %; released (extracellular) glutamate, magnitude of reduction (Caco-2 cells [2]): 24.1%; Total antioxidant activity (TAO) (Caco-2 cells [3]): 62.6 ± 0.15 µM/L
CC1(C)CCC(C)(C)c2cc(C#Cc3cccc(C(=O)O)c3)ccc21 [EC19, 3-(5,5,8,8-tetramethyl-5,6,7,8-tetrahydronaphthalen-2-ylethynyl) benzoic acid]	48.4 ± 1.2	> 100	> 100	10.8 ± 0.1	86.9 ± 2	> 100	42.2 ± 0.92	> 100	9.4 ± 0.13	> 100	> 100	39.1 ± 6.7	9.1 ± 1.3	51.5 ± 7.2	0.29 ± 0.1	23.4 ± 2.8	29.0 ± 4.1	22.5 ± 3.1	44.0 ± 8.2	4.5 ± 0.6	SI (selectivity index) (WI-38): 1; SI (selectivity index) (A549): <1; SI (selectivity index) (Caco-2): 4.5 ± 0.01; SI (selectivity index) (DU-145): 0.56 ± 0.001; SI (selectivity index) (HCT-116): <1; SI (selectivity index) (HepG2): 1.2 ± 0.002; SI (selectivity index) (Huh7): 0.14 ±0.01; SI (selectivity index) (MCF-7): 5.18 ± 0.1; SI (selectivity index) (MDA-MB 231): <1; SI (selectivity index) (PC3): <1; %G2M/G0-G1 (Caco-2 cells [1]; 24 h treatment): 77.6 ± 10.8 %; released (extracellular) glutamate, magnitude of reduction (Caco-2 cells [2]): 1.4%; Total antioxidant activity (TAO) (Caco-2 cells [3]): 22.6 ± 0.024 µM/L
CC1(C)CCC(C)(C)c2cc(C#Cc3ccc(C(=O)O)cc3)ccc21 [EC23, 4-(5,5,8,8-tetramethyl-5,6,7,8-tetrahydronaphthalen-2-ylethynyl) benzoic acid]	8.01 ± 0.13	35.2 ± 1.02	> 100	14.7 ± 0.73	> 100	44.5 ± 1.1	0.74 ± 0.001	> 100	5.56 ± 0.01	> 100	> 100	58.7 ± 8.2	6.8 ± 0.8	34.0 ± 4.1	0.46 ± 0.1	11.6 ± 1.7	32.7 ± 4.6	15.8 ± 1.9	47.6 ± 9.1	3.9 ± 0.43	SI (selectivity index) (WI-38): 1; SI (selectivity index) (A549): <1; SI (selectivity index) (Caco-2): 0.54 ±0.01; SI (selectivity index) (DU-145): <1; SI (selectivity index) (HCT-116): 0.18 ± 0.003; SI (selectivity index) (HepG2): 10.82 ± 1.0; SI (selectivity index) (Huh7): 0.02 ± 0.001; SI (selectivity index) (MCF-7): 1.44 ± 0.004; SI (selectivity index) (MDA-MB 231): <1; SI (selectivity index) (PC3): <1; %G2M/G0-G1 (Caco-2 cells [1]; 24 h treatment): 48.3 ± 6.8 %; released (extracellular) glutamate, magnitude of reduction (Caco-2 cells [2]): 5%; Total antioxidant activity (TAO) (Caco-2 cells [3]): 22.6 ± 0.024 µM/L
